From PubChem BioAssay AID292 (DTP/NCI, 2004)
Values joined by “and” are separate entries in the source; they are usually repeats but may differ in a detail not shown here. Identical values can stand only once. Inconclusive results and toxic doses are left out.

Tested on: B6C3F1 mice, ip Sarcoma M5076, median survival T/C
Test: NCI In Vivo Anticancer Drug Screen. Data for tumor model Sarcoma M5076 (intraperitoneal) in B6C3F1 mice
Details: endpoint: median survival time, higher = longer survival
Procedure, shortened: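 Transplantable tumour in mice; compound-treated vs vehicle-treated groups. Read-out: survival. Value = treated/control ratio.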

[1] = dose: 50.0 mg/kg/injection, schedule: Q04DX004 (ip), vehicle: Klucel (hydroxypropylcellulose) (HPC)
[2] = dose: 100.0 mg/kg/injection, schedule: Q04DX004 (ip), vehicle: Klucel (hydroxypropylcellulose) (HPC)
[3] = dose: 200.0 mg/kg/injection, schedule: Q04DX004 (ip), vehicle: Klucel (hydroxypropylcellulose) (HPC)
[4] = dose: 400.0 mg/kg/injection, schedule: Q04DX004 (ip), vehicle: Klucel (hydroxypropylcellulose) (HPC)
[5] = dose: 37.5 mg/kg/injection, schedule: Q04DX004 (ip), vehicle: saline with Tween-80
[6] = dose: 75.0 mg/kg/injection, schedule: Q04DX004 (ip), vehicle: saline with Tween-80
[7] = dose: 150.0 mg/kg/injection, schedule: Q04DX004 (ip), vehicle: saline with Tween-80
[8] = dose: 300.0 mg/kg/injection, schedule: Q04DX004 (ip), vehicle: saline with Tween-80
[9] = dose: 600.0 mg/kg/injection, schedule: Q04DX004 (ip), vehicle: saline with Tween-80
[10] = dose: 25.0 mg/kg/injection, schedule: Q04DX004 (ip), vehicle: saline with Tween-80
[11] = dose: 50.0 mg/kg/injection, schedule: Q04DX004 (ip), vehicle: saline with Tween-80
[12] = dose: 100.0 mg/kg/injection, schedule: Q04DX004 (ip), vehicle: saline with Tween-80
[13] = dose: 200.0 mg/kg/injection, schedule: Q04DX004 (ip), vehicle: saline with Tween-80
[14] = dose: 400.0 mg/kg/injection, schedule: Q04DX004 (ip), vehicle: saline with Tween-80

## CC(C)(C)CCC(Br)CBr (stereo not given)
dose: 3.12 mg/kg/injection, schedule: Q04DX004 (ip), vehicle: saline
  T/C: 98 % of control
dose: 3.12 mg/kg/injection, schedule: Q04DX004 (ip), vehicle: suspension in saline
  T/C: 95 % of control
dose: 6.25 mg/kg/injection, schedule: Q04DX004 (ip), vehicle: saline
  T/C: 102 % of control
dose: 6.25 mg/kg/injection, schedule: Q04DX004 (ip), vehicle: suspension in saline
  T/C: 97 % of control
dose: 12.5 mg/kg/injection, schedule: Q04DX004 (ip), vehicle: saline
  T/C: 99 % of control
dose: 12.5 mg/kg/injection, schedule: Q04DX004 (ip), vehicle: suspension in saline
  T/C: 99 % of control
dose: 25.0 mg/kg/injection, schedule: Q04DX004 (ip), vehicle: saline
  T/C: 100 % of control
dose: 50.0 mg/kg/injection, schedule: Q04DX004 (ip), vehicle: saline
  T/C: 100 % of control
dose: 50.0 mg/kg/injection, schedule: Q04DX004 (ip), vehicle: suspension in saline
  T/C: 100 % of control and 106 % of control
dose: 100.0 mg/kg/injection, schedule: Q04DX004 (ip), vehicle: suspension in saline
  T/C: 111 % of control
dose: 200.0 mg/kg/injection, schedule: Q04DX004 (ip), vehicle: suspension in saline
  T/C: 106 % of control
dose: 400.0 mg/kg/injection, schedule: Q04DX004 (ip), vehicle: suspension in saline
  T/C: 93 % of control

## Cc1ccccc1C1C(C#N)C(=O)NC(=O)C1C#N (stereo not given)
[1]
  T/C: 102 % of control
[2]
  T/C: 105 % of control
[3]
  T/C: 102 % of control
[4]
  T/C: 98 % of control

## CC1=CC(C)(C)Nc2ccc(OC(=O)/C=C(C)/C=C/C=C(C)/C=C/C3=C(C)CCCC3(C)C)cc21
[5]
  T/C: 96 % of control
[6]
  T/C: 98 % of control
[7]
  T/C: 98 % of control
[8]
  T/C: 89 % of control
[9]
  T/C: 89 % of control

## Cc1nc2ccccc2c2nnc(SCC(=O)N(Cc3ccccc3)c3ccccc3)n12
dose: 25.0 mg/kg/injection, schedule: Q04DX004 (ip), vehicle: Klucel (hydroxypropylcellulose) (HPC)
  T/C: 98 % of control
[1]
  T/C: 115 % of control
[2]
  T/C: 114 % of control
[3]
  T/C: 104 % of control
[4]
  T/C: 112 % of control

## O=C(Nc1ccccc1)c1c(O)[nH]c(=O)[nH]c1=O
[10]
  T/C: 102 % of control and 108 % of control
[11]
  T/C: 98 % of control and 106 % of control and 110 % of control
[12]
  T/C: 96 % of control and 111 % of control and 112 % of control
[13]
  T/C: 109 % of control and 111 % of control and 119 % of control
[14]
  T/C: 114 % of control

## NC(=O)c1cc(Cl)nc2nc(Cl)nc(N)c12
[10]
  T/C: 100 % of control
[11]
  T/C: 97 % of control
[12]
  T/C: 99 % of control
[13]
  T/C: 96 % of control
[14]
  T/C: 93 % of control

## COc1nc2cc3c(cc2n2cccc12)oc1ccccc13
dose: 0.38 mg/kg/injection, schedule: Q04DX004 (ip), vehicle: saline with Tween-80
  T/C: 92 % of control
dose: 0.75 mg/kg/injection, schedule: Q04DX004 (ip), vehicle: saline with Tween-80
  T/C: 89 % of control

## CC(C)c1cc(C(=O)O)c(O)c(C(C)C)c1.CC(C)c1cc(C(=O)O)c(O)c(C(C)C)c1.[Cu]
dose: 1.5 mg/kg/injection, schedule: Q04DX004 (ip), vehicle: saline with Tween-80
  T/C: 95 % of control and 104 % of control
dose: 3.0 mg/kg/injection, schedule: Q04DX004 (ip), vehicle: saline with Tween-80
  T/C: 102 % of control and 104 % of control
dose: 6.0 mg/kg/injection, schedule: Q04DX004 (ip), vehicle: saline with Tween-80
  T/C: 96 % of control and 102 % of control
dose: 12.0 mg/kg/injection, schedule: Q04DX004 (ip), vehicle: saline with Tween-80
  T/C: 88 % of control and 102 % of control
dose: 12.5 mg/kg/injection, schedule: Q04DX004 (ip), vehicle: saline with Tween-80
  T/C: 93 % of control
dose: 24.0 mg/kg/injection, schedule: Q04DX004 (ip), vehicle: saline with Tween-80
  T/C: 90 % of control

## Clc1cccc2[nH]c(-c3ccncc3)nc12
[5]
  T/C: 104 % of control
[6]
  T/C: 111 % of control
[7]
  T/C: 98 % of control
[8]
  T/C: 105 % of control
[9]
  T/C: 100 % of control

## CO[C@H](/C(C)=C/C=C/C(C)=C/c1coc(C)n1)[C@H](C)[C@H]1C[C@@H](O)[C@@]2(C)O[C@H]2/C=C/[C@@H](C)[C@@H]2C[C@@H](CC(=O)O2)C[C@H]2O[C@@H]2C(=O)O1
dose: 0.06 mg/kg/injection, schedule: Q04DX004 (ip), vehicle: other
  T/C: 110 % of control
dose: 0.09 mg/kg/injection, schedule: Q04DX004 (ip), vehicle: Klucel (hydroxypropylcellulose) (HPC)
  T/C: 116 % of control
dose: 0.09 mg/kg/injection, schedule: Q04DX004 (ip), vehicle: other
  T/C: 108 % of control and 113 % of control
dose: 0.12 mg/kg/injection, schedule: Q04DX004 (ip), vehicle: Klucel (hydroxypropylcellulose) (HPC)
  T/C: 118 % of control
dose: 0.13 mg/kg/injection, schedule: Q01DX005 (sc), vehicle: other
  T/C: 109 % of control
dose: 0.13 mg/kg/injection, schedule: Q04DX004 (ip), vehicle: Klucel (hydroxypropylcellulose) (HPC)
  T/C: 115 % of control and 121 % of control
dose: 0.13 mg/kg/injection, schedule: Q04DX004 (ip), vehicle: other
  T/C: 110 % of control
dose: 0.13 mg/kg/injection, schedule: Q04DX004 (iv), vehicle: other
  T/C: 112 % of control
dose: 0.2 mg/kg/injection, schedule: Q01DX001 (sc), vehicle: other
  T/C: 102 % of control
dose: 0.2 mg/kg/injection, schedule: Q01DX005 (sc), vehicle: other
  T/C: 114 % of control
dose: 0.2 mg/kg/injection, schedule: Q01DX013 (ip), vehicle: other
  T/C: 162 % of control
dose: 0.2 mg/kg/injection, schedule: Q04DX004 (ip), vehicle: Klucel (hydroxypropylcellulose) (HPC)
  T/C: 119 % of control
dose: 0.2 mg/kg/injection, schedule: Q04DX004 (ip), vehicle: other
  T/C: 115 % of control and 121 % of control and 122 % of control
dose: 0.2 mg/kg/injection, schedule: Q04DX004 (iv), vehicle: other
  T/C: 110 % of control
dose: 0.25 mg/kg/injection, schedule: Q04DX004 (ip), vehicle: Klucel (hydroxypropylcellulose) (HPC)
  T/C: 118 % of control
dose: 0.3 mg/kg/injection, schedule: Q01DX001 (sc), vehicle: other
  T/C: 105 % of control
dose: 0.3 mg/kg/injection, schedule: Q01DX005 (sc), vehicle: other
  T/C: 115 % of control
dose: 0.3 mg/kg/injection, schedule: Q01DX013 (ip), vehicle: other
  T/C: 163 % of control
dose: 0.3 mg/kg/injection, schedule: Q04DX004 (ip), vehicle: Klucel (hydroxypropylcellulose) (HPC)
  T/C: 123 % of control
dose: 0.3 mg/kg/injection, schedule: Q04DX004 (ip), vehicle: other
  T/C: 123 % of control
dose: 0.3 mg/kg/injection, schedule: Q04DX004 (iv), vehicle: other
  T/C: 117 % of control
dose: 0.44 mg/kg/injection, schedule: Q04DX004 (iv), vehicle: other
  T/C: 122 % of control
dose: 0.45 mg/kg/injection, schedule: Q01DX001 (sc), vehicle: other
  T/C: 109 % of control
dose: 0.67 mg/kg/injection, schedule: Q01DX001 (sc), vehicle: other
  T/C: 99 % of control
dose: 0.67 mg/kg/injection, schedule: Q04DX004 (ip), vehicle: Klucel (hydroxypropylcellulose) (HPC)
  T/C: 150 % of control
dose: 1.0 mg/kg/injection, schedule: Q01DX001 (sc), vehicle: other
  T/C: 104 % of control
dose: 1.0 mg/kg/injection, schedule: Q04DX004 (ip), vehicle: other
  T/C: 169 % of control
dose: 1.5 mg/kg/injection, schedule: Q01DX001 (sc), vehicle: other
  T/C: 110 % of control
dose: 1.5 mg/kg/injection, schedule: Q04DX004 (ip), vehicle: Klucel (hydroxypropylcellulose) (HPC)
  T/C: 161 % of control
dose: 0.67 micrograms per hour, schedule: Q#X X024 (sc), vehicle: other
  T/C: 122 % of control
dose: 0.67 micrograms per hour, schedule: Q#X X072 (sc), vehicle: other
  T/C: 152 % of control
dose: 1.0 micrograms per hour, schedule: Q#X X072 (sc), vehicle: other
  T/C: 150 % of control
dose: 55.6 micrograms/kg/injection, schedule: Q03HX008 (sc), vehicle: other
  T/C: 110 % of control
dose: 83.4 micrograms/kg/injection, schedule: Q03HX008 (sc), vehicle: other
  T/C: 118 % of control
dose: 125.0 micrograms/kg/injection, schedule: Q03HX008 (sc), vehicle: other
  T/C: 123 % of control
dose: 281.0 micrograms/kg/injection, schedule: Q03HX008 (sc), vehicle: other
  T/C: 120 % of control
